The values below are quoted from earlier work in patent US8523569B2, “Controlled release local anesthetic for post dental surgery and method of use” (priority 2007, dated 2013).

For this data set the following is noted: immediate release vasoconstrictor, known to the art.

Regarding `CNC[C@H](O)c1ccc(O)c(O)c1` [epinephrine], the “prolongation of local anesthetic activity, at best” value was not above 1 h.
